Consider three compounds from patent publication US20260271929A1, “FUNGICIDAL COMBINATIONS, MIXTURES AND COMPOSITIONS AND USES THEREOF” (ADAMA MAKHTESHIM LTD., priority 2023, published 2026).

The test system of the assay is Rhizoctonia solani. Put plainly: Microtiter plate (MTP) fungal growth inhibition assay, OD at 590 nm after 5 days; interaction by Wadley approach. Format: cell-based. The following applies: for EC50: Rhizoctonia solani. Here is the method:
In the […] method, synergistic activity is determined from dose response curves. With this method, the efficacy of the active ingredient (“a.i.”) is determined by comparing the degree of fungal attack on treated plants with that on untreated, similarly inoculated and incubated check plants. Each a.i. is generally tested at multiple. (e.g., 6) 25 concentrations, and dose response curves are generated. The dose response curves are used to establish the EC50 (i.e., the effective concentration of a.i. providing 50% disease control) of the individual compounds as well as of the combinations (EC50Observed) The experimentally found values of the mixture at a given weight ratio are compared with the values that would have been found were only a complementary efficacy of the components was present as follows: 5 [formula] • A and B=the single products tested • a and b=the ratio of each product in the mixture • ECA and ECB=observed effective concentration of the single products A and B at different control levels (50 or 90%) 10 The ratio EC50 (A+B)Theo/EC50(A+B)observed expresses the factor of interaction level (R) which may be interpreted in accordance with the following Table: [table] The compound of Formula I, […] and Pyridachlometyl were tested straight or in mixture on the Rhizoctonia solani pathogen. the active ingredients straight or in mixture were diluted in a suitable solvent to a set of concentrations. Two fungicide ratios were tested for each combination between the compound of Formula I and Chloroinconazide or Pyridachlometyl. One hundred microliters of sterile distilled water with or without fungicide were added to 100 μl of pathogen suspension into each well in a microtiter plate (MTP). Each bioassay was carried out with the following 8 treatment groups corresponding to 8 concentrations of the fungicide mixture. In the MTP assay, 3 replicates (wells) were carried out for each concentration of fungicide mixture. The MTPs were incubated in the dark at 19° C. for 5 days under saturated humidity in order to avoid evaporation. Then, the fungal growth in each well was estimated by measuring the Optical Density (OD) at 590 nm with a BMG plate reader (FLUOstar Omega, BMG Labtech). The OD values at 5 days were automatically corrected by comparison with those measured at day zero (inoculation day). The generated data were transferred to the MARS Data Analysis software (BMG Labtech) which allows to calculate percentage of growth inhibition induced by each concentration of fungicide tested. Finally, the EC50 of each product and mixture was determined. • (i) No bacterial nor fungal contamination at any stage of the assay must be observed. • (ii) A normal and constant mycelium growth must be observed in the control wells (without fungicide). • (iii) At the end of the evaluation the final minimum OD must reach at least a value of 0.25 Absorbance's Unit (AU).

The mark [1] stands for this setting: MTP, 5 days at 19° C., OD 590 nm.
Setting [2] is: Table 9, active ingredient straight.

Where two headings read alike, the source gives them in different places.

As for `CC1N[C@H](C(=O)N/N=C/c2ccc(Cl)cc2)Cc2c1[nH]c1ccccc21` (stereo partly drawn) [Chloroinconazide], the “percentage of growth inhibition” value by setting is: (Dose 0.110) 14.4%; (Dose 0.329) 2.0%; (Dose 0.988) 24.1%; (Dose 2.96) 9.1%; (Dose 8.89) 19.5%; (Dose 26.7) 99.3%. For the same compound, the “percentage of growth inhibition” value (Dose 80) is reported as 100.1%. Moreover, the EC50 under setting [1] turned out to be 15.399 µg/mL. Further, the EC50 observed under setting [2] is 15.3990 µg/mL.

Take `Cc1ccc(S(=O)(=O)n2cc(F)c(=N)n(C)c2=O)cc1` [Compound (I), 5-fluoro-4-imino-3-methyl-1-tosyl-3,4-dihydropyrimidin-2(1H)-one]: the EC50 by setting is: (120 h, MTP, 5 days at 19° C., OD 590 nm, read-out: EC50) greater than 320 µg/mL; (Table 9, active ingredient straight, read-out: EC50 observed) no less than 320 µg/mL. Also, the “percentage of growth inhibition” value was found to be 15.8% (Dose 0.020); 23.9% (Dose 0.102); 22.5% (Dose 0.512); 0.7% (Dose 2.56); 13.5% (Dose 12.8); 27.7% (Dose 64). For the same compound, the “percentage of growth inhibition” value (Dose 320) is reported as 40.1%.

For `Cc1nnc(Cl)c(-c2c(F)cccc2F)c1-c1ccccc1` [Pyridachlometyl], the “percentage of growth inhibition” value is listed as −1.1% (Dose 0.00781); 2.6% (Dose 0.01563); 3.7% (Dose 0.03125); 12.7% (Dose 0.06250); 68.7% (Dose 0.12500); 76.0% (Dose 0.2500). The “percentage of growth inhibition” value (Dose 0.500) is 77.2%. Further, under setting [1], the half-maximal effective concentration (EC50) was determined as 0.111 µg/mL. Further, the EC50 observed under setting [2] was 0.1115 µg/mL.

Broadly, the EC50 is the midpoint of the concentration-response curve.
